Laboratory results: ChEMBL document CHEMBL6071148, “Synthesis and biological evaluation of novel 3,6- amide and thioamide substituted- 2,3,4,9-tetrahydro-1H-carbazoles for anti-cancer activity” (Eur J Med Chem, 2024)

What was measured:
Acetylcholinesterase = Acetylcholinesterase (Homo sapiens, UniProt P22303); test: Inhibition of AChE (unknown origin) by Ellman's method
MCF7 [1] = test: Cytotoxicity against human MCF7 cells assessed as inhibition of cell proliferation incubated for 72 hrs by MTT assay; format: functional, cell-based; details: MCF7, 72 h
[2] = Cytotoxicity against human MRC5 cells assessed as inhibition of cell proliferation incubated for 72 hrs by MTT assay; format: toxicity, cell-based
A549 = test: Cytotoxicity against human A549 cells assessed as inhibition of cell proliferation incubated for 72 hrs by MTT assay; format: functional, cell-based; details: A549, 72 h
HCT-116 [3] = test: Cytotoxicity against human HCT-116 cells assessed as inhibition of cell proliferation incubated for 72 hrs by MTT assay; format: functional, cell-based; details: HCT-116, 72 h
HCT-116 [4] = test: Cytotoxicity against human HCT-116 cells assessed as reduction in cell viability by SRB assay; format: functional, cell-based
MCF7 [5] = test: Cytotoxicity against human MCF7 cells assessed as reduction in cell viability by SRB assay; format: functional, cell-based
Human papillomavirus = test: Antiviral activity against Human papillomavirus; format: functional, organism-based

Sequence of Acetylcholinesterase (P22303 whole entry): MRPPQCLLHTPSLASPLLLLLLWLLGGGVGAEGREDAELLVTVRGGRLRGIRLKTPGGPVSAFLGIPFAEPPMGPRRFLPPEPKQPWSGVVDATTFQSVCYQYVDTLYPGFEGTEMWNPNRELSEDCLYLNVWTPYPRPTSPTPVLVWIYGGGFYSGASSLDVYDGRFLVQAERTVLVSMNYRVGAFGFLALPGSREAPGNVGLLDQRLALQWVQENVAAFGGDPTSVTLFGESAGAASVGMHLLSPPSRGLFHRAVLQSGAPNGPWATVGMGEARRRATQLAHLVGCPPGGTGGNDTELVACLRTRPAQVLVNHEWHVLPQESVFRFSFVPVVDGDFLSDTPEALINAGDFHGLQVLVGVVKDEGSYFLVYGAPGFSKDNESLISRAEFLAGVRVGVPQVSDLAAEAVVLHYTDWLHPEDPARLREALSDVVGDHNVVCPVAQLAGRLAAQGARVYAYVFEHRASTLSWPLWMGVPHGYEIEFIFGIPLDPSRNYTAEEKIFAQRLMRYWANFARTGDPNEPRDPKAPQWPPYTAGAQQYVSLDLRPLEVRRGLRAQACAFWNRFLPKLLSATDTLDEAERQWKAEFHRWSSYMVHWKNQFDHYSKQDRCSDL

| IC50 (Human papillomavirus) | Compound | IC50 (Acetylcholinesterase) | IC50 (MCF7 [1]) | IC50 at 72 h [2] | IC50 (A549) | IC50 (HCT-116 [3]) | IC50 (HCT-116 [4]) | IC50 (MCF7 [5]) |
| --- | --- | --- | --- | --- | --- | --- | --- | --- |
| – | O=C1[C@H](O)C[C@]23CCCN1[C@@H]2c1c([nH]c2ccccc12)CC3 | 38.5 µM | – | – | – | – | – | – |
| – | CC(=O)Nc1ccc2[nH]c3c(c2c1)CC(NC(=O)c1ccc(Br)o1)CC3 (centres undefined) | – | > 50 µM | > 50 µM | > 50 µM | > 50 µM | – | – |
| – | CCc1ccc(C(=O)NC2CCc3[nH]c4ccc(NC(C)=O)cc4c3C2)o1 (centres undefined) | – | > 50 µM | > 50 µM | > 50 µM | > 50 µM | – | – |
| – | CC(=O)NC1CCc2[nH]c3ccc(S(N)(=O)=O)cc3c2C1 (centres undefined) | – | > 50 µM | > 50 µM | > 50 µM | > 50 µM | – | – |
| – | O=C(CSC(=S)N1CCN(c2ccc(Cl)cc2)CC1)n1c2c(c3ccccc31)CCCC2 | – | – | – | – | – | 8.23 µM | 7.24 µM |
| – | CC(=O)Nc1ccc2[nH]c3c(c2c1)CC(NC(=O)OC(C)(C)C)CC3 (centres undefined) | – | > 50 µM | > 50 µM | > 50 µM | > 50 µM | – | – |
| 0.005 µM | O=C(N[C@@H]1CCCc2c1[nH]c1ccc(Cl)cc21)c1ccccn1 | – | – | – | – | – | – | – |
| – | CC(=O)Nc1ccc2[nH]c3c(c2c1)CC(NC(=O)c1ccc(C)o1)CC3 (centres undefined) | – | > 50 µM | > 50 µM | > 50 µM | > 50 µM | – | – |
